Source: patent publication EP4745135A1 (Gluetacs Therapeutics (Shanghai) Co., Ltd., priority 2023, dated 2025)

Key:
[1] = target: T1, CK1α (Homo sapiens, UniProt P48729+Q96SW2); assay: Western blot, degradation of substrate protein in hPBMCs; type: cell-based
T1 construct: effects of the compounds of the present disclosure on the expression of target proteins in cells; endogenous in cells; host or cells: human PBMCs (Milecell Biotechnologies)

[2] = target: T2, IKZF1 (Homo sapiens, UniProt Q13422+Q96SW2); assay: as above; type: cell-based
T2 construct: effects of the compounds of the present disclosure on the expression of target proteins in cells; endogenous in cells; host or cells: human PBMCs (Milecell Biotechnologies)
T2 sequence (Q13422 whole entry): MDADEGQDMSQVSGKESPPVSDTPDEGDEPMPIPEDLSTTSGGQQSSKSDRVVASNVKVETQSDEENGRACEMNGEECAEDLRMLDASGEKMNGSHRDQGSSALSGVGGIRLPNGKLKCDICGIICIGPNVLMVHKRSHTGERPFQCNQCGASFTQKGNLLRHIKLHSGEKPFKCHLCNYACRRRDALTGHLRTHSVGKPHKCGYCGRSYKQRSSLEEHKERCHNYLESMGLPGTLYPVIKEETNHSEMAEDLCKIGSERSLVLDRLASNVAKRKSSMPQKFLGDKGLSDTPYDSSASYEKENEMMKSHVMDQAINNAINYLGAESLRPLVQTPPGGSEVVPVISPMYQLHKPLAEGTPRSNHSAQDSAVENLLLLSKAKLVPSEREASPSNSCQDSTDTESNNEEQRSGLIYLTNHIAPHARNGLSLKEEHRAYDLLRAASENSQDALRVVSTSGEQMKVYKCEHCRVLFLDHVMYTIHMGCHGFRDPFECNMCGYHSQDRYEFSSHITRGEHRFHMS
T2 sequence (Q96SW2 whole entry): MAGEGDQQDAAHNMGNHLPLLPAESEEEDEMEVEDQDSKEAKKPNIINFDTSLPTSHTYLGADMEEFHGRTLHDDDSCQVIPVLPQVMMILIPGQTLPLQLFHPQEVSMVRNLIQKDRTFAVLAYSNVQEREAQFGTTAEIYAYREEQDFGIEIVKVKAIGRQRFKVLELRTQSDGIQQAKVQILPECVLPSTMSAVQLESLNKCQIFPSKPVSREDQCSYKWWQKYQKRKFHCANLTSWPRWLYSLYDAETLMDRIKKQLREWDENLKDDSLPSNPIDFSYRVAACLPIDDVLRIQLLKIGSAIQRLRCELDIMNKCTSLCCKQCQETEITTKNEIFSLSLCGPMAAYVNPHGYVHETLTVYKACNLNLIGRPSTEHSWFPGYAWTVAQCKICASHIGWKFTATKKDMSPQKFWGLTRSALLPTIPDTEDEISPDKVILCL
T2 sequence (Q16531 whole entry partner): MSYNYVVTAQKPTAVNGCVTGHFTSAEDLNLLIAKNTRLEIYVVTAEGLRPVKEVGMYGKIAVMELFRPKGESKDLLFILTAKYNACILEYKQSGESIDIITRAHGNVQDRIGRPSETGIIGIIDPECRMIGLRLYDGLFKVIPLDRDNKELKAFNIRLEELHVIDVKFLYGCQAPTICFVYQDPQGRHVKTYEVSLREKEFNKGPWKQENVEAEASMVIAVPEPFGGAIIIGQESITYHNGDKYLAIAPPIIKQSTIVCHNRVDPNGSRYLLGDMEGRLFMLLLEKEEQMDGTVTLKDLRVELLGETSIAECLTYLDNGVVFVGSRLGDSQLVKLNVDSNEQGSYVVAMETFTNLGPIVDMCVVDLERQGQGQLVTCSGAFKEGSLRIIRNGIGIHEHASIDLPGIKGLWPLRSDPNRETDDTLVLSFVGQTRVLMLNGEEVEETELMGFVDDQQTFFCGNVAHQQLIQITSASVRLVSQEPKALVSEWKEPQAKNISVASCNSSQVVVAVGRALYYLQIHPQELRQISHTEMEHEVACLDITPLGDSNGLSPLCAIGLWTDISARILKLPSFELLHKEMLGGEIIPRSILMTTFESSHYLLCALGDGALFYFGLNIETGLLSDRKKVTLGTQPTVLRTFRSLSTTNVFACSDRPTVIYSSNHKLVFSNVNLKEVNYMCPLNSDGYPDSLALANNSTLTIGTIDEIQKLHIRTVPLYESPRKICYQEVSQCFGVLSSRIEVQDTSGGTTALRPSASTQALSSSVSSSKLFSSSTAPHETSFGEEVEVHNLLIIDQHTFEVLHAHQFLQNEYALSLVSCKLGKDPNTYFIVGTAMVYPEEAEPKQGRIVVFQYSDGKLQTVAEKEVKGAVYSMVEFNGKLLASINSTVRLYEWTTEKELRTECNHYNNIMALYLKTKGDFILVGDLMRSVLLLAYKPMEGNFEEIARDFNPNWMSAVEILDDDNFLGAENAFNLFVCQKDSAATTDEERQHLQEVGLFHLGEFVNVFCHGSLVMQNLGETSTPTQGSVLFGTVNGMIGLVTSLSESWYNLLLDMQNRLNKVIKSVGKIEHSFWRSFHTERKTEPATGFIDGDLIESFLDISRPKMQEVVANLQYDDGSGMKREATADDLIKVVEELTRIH

[3] = target: T3, IKZF2 (Homo sapiens, UniProt Q96SW2+Q9UKS7); assay: as above; type: cell-based
T3 construct: effects of the compounds of the present disclosure on the expression of target proteins in cells; endogenous in cells; host or cells: human PBMCs (Milecell Biotechnologies)
T3 sequence (Q9UKS7 whole entry): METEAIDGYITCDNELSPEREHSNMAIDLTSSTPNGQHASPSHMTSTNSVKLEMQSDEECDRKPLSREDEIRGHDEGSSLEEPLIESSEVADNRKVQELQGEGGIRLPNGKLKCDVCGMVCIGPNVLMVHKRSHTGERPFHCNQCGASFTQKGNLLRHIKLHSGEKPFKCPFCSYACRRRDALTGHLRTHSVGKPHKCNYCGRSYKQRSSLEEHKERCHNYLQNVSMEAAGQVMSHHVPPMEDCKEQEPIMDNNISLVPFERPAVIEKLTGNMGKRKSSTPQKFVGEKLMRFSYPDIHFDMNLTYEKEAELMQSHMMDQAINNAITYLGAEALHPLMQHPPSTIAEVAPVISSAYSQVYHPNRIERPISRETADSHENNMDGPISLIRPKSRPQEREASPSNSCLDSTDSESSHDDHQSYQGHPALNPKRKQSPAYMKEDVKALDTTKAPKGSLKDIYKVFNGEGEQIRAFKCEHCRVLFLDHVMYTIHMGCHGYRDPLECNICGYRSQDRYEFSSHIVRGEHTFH
T3 sequence (Q96SW2 whole entry): as the sequence (Q96SW2 whole entry) above
T3 sequence (Q16531 whole entry partner): as the sequence (Q16531 whole entry partner) above

[4] = target: T4, IKZF3 (Homo sapiens, UniProt Q96SW2+Q9UKT9); assay: as above; type: cell-based
T4 construct: effects of the compounds of the present disclosure on the expression of target proteins in cells; endogenous in cells; host or cells: human PBMCs (Milecell Biotechnologies)
T4 sequence (Q9UKT9 whole entry): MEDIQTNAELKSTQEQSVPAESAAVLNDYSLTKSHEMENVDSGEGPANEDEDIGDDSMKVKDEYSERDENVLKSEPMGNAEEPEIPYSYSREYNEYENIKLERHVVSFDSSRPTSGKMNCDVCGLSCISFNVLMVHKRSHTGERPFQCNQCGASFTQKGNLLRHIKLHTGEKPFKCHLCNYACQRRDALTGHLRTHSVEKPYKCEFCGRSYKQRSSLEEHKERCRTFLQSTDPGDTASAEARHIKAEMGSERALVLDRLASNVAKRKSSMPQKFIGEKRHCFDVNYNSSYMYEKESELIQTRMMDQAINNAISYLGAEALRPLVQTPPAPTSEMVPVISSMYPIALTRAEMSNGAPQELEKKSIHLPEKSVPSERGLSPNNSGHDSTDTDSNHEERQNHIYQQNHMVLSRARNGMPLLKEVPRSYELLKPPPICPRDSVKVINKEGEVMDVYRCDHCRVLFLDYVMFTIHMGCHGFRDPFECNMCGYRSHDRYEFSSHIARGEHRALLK
T4 sequence (Q96SW2 whole entry): as the sequence (Q96SW2 whole entry) above
T4 sequence (Q16531 whole entry partner): as the sequence (Q16531 whole entry partner) above

[5] = target: T5, WEE1 (Homo sapiens, UniProt P30291+Q96SW2); assay: as above; type: cell-based
T5 construct: effects of the compounds of the present disclosure on the expression of target proteins in cells; endogenous in cells; host or cells: human PBMCs (Milecell Biotechnologies)
T5 sequence (P30291 whole entry): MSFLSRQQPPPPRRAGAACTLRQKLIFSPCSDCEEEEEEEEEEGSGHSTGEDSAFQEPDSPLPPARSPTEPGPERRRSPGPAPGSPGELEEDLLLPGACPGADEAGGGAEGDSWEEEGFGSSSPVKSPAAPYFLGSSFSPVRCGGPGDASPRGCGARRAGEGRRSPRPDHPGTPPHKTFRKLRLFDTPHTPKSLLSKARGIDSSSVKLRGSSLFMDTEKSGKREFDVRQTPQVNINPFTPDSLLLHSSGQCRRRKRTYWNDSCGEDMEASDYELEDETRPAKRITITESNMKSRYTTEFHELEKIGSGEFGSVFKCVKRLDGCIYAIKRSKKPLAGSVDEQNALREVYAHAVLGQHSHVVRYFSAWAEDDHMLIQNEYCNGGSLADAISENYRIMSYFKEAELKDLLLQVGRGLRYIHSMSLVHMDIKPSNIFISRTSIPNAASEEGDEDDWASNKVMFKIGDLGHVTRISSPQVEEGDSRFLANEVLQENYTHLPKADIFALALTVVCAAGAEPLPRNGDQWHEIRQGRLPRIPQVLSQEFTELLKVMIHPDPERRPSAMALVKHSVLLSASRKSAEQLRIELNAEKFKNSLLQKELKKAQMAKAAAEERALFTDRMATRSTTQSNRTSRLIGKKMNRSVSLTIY
T5 sequence (Q96SW2 whole entry): as the sequence (Q96SW2 whole entry) above
T5 sequence (Q16531 whole entry partner): as the sequence (Q16531 whole entry partner) above

[6] = test system: GSPT1; assay: as above; type: cell-based, Human
[7] = target: T6, human Cereblon WT GST-tagged protein (Homo sapiens, UniProt Q96SW2); assay: CRBN-binding affinity, HTRF (CEREBLON BINDING kit); conditions: for inhibition at 0.5 µM: read-out: Inhibition Rate at 0.5 µM (%); for inhibition at 2 µM: read-out: Inhibition Rate at 2 µM (%)
T6 construct: purchased CISBIO 64BDCRBNPEH
T6 sequence (Q96SW2 whole entry): as the sequence (Q96SW2 whole entry) above

[8] = 24 hours treatment, compounds at 50 nM and 500 nM (concentration behind the class not stated)
[9] = Western blot, 24 hours of compound treatment, compounds tested at 50 nM and 500 nM (concentration for the table not stated)

T1 sequence (P48729 whole entry): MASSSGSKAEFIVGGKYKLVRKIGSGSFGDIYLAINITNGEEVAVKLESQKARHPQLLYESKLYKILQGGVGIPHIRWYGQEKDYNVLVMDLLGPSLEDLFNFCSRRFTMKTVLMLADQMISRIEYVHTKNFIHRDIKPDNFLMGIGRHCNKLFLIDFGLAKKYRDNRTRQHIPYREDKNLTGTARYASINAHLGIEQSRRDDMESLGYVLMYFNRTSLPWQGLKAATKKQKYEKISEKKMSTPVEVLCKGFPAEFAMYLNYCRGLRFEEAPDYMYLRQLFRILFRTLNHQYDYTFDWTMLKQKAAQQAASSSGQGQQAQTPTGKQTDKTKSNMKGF
T1 sequence (Q96SW2 whole entry): as the sequence (Q96SW2 whole entry) above
T1 sequence (Q16531 whole entry partner): as the sequence (Q16531 whole entry partner) above

SMILES | CK1α substrate protein remaining % [1, 8] | IKZF 1 substrate protein remaining % [2, 8] | IKZF2 substrate protein remaining % [3, 8] | IKZF3 substrate protein remaining % [4, 8] | Wee1 substrate protein remaining % [5, 8] | GSPT1 substrate protein remaining % [6, 8] | inhibition at 0.5 µM [7] | inhibition at 2 µM [7] | CK1α substrate protein remaining % [1, 9] | IKZF 1 substrate protein remaining % [2, 9] | IKZF2 substrate protein remaining % [3, 9] | IKZF3 substrate protein remaining % [4, 9] | Wee1 substrate protein remaining % [5, 9] | GSPT1 substrate protein remaining % [6, 9] | IC50 ([7]; CRBN binding, HTRF, 3 hours at room temperature, read-out: HTRF IC50)
O=C1CCC(N2Cc3cc(CN4CCC(c5noc6ccccc56)CC4)ccc3C2=S)C(=O)N1 (centres unmarked) [GT-09266, 3-(5-((4-(benzo[d]isoxazol-3-yl)piperidin-1-yl)methyl)-1-thioxoisoindolin-2-yl)piperidine-2,6-dione] | B (80%< substrate protein remaining %≤ 100%) | B (80%< substrate protein remaining %≤ 100%) | B (80%< substrate protein remaining %≤ 100%) | B (80%< substrate protein remaining %≤ 100%) | B (80%< substrate protein remaining %≤ 100%) | A (0% ≤ substrate protein remaining % ≤ 80%) | 60 to 80% | 80 to 100% |  |  |  |  |  |  | 
O=C1CCC(N2Cc3cc(CN4CCN(c5ccccn5)CC4)ccc3C2=S)C(=O)N1 (centres unmarked) [GT-09216, 3-(5-((4-(pyridin-2-yl)piperazin-1-yl)methyl)-1-thioxoisoindolin-2-yl)piperidine-2,6-dione] |  |  |  |  |  |  | 60 to 80% | 80 to 100% | B (80%< substrate protein remaining %≤ 100%) | B (80%< substrate protein remaining %≤ 100%) | B (80%< substrate protein remaining %≤ 100%) | B (80%< substrate protein remaining %≤ 100%) | B (80%< substrate protein remaining %≤ 100%) | A (0% ≤ substrate protein remaining % ≤ 80%) | 
O=C1CCC(N2Cc3cc(CN4CC5CCC(C4)N5c4cccc(Cl)c4Cl)ccc3C2=S)C(=O)N1 (centres unmarked) [GT-08479, 3-(5-((8-(2,3-dichlorophenyl)-3,8-diazabicyclo[3.2.1]octan-3-yl)methyl)-1-thioxoisoindolin-2-yl)piperidine-2,6-dione] |  |  |  |  |  |  | 40 to 53% | 60 to 80% | B (80%< substrate protein remaining %≤ 100%) | B (80%< substrate protein remaining %≤ 100%) | B (80%< substrate protein remaining %≤ 100%) | B (80%< substrate protein remaining %≤ 100%) | B (80%< substrate protein remaining %≤ 100%) | A (0% ≤ substrate protein remaining % ≤ 80%) | 
O=C1CCC(N2Cc3c(CN4CCC(c5noc6cc(F)ccc56)CC4)cccc3C2=S)C(=O)N1 (centres unmarked) [GT-04997, 3-(4-((4-(6-fluorobenzo[d]isoxazol-3-yl)piperidin-1-yl)methyl)-1-thioxoisoindolin-2-yl)piperidine-2,6-dione] | B (80%< substrate protein remaining %≤ 100%) | B (80%< substrate protein remaining %≤ 100%) | B (80%< substrate protein remaining %≤ 100%) | B (80%< substrate protein remaining %≤ 100%) | A (0% ≤ substrate protein remaining % ≤ 80%) | B (80%< substrate protein remaining %≤ 100%) |  |  |  |  |  |  |  |  | 100 to 500 nM
O=C1CCC(N2Cc3c(CN4CCN(c5nc(Cl)nc6c5SCC6)CC4)cccc3C2=S)C(=O)N1 (centres unmarked) [GT-08966, 3-(4-((4-(2-chloro-6,7-dihydrothieno[3,2-d]pyrimidin-4-yl)piperazin-1-yl)methyl)-1-thioxoisoindolin-2-yl)piperidine-2,6-dione] | B (80%< substrate protein remaining %≤ 100%) | B (80%< substrate protein remaining %≤ 100%) | B (80%< substrate protein remaining %≤ 100%) | B (80%< substrate protein remaining %≤ 100%) | B (80%< substrate protein remaining %≤ 100%) | A (0% ≤ substrate protein remaining % ≤ 80%) | 80 to 100% | 80 to 100% |  |  |  |  |  |  | 
Cc1ccc(Cl)cc1N1CCN(Cc2cccc3c2CN(C2CCC(=O)NC2=O)C3=S)CC1 (centres unmarked) [GT-08505, 3-(4-((4-(5-chloro-2-methylphenyl)piperazin-1-yl)methyl)-1-thioxoisoindolin-2-yl)piperidine-2,6-dione] |  |  |  |  |  |  | 40 to 53% | 60 to 80% | B (80%< substrate protein remaining %≤ 100%) | B (80%< substrate protein remaining %≤ 100%) | B (80%< substrate protein remaining %≤ 100%) | A (0% ≤ substrate protein remaining % ≤ 80%) | A (0% ≤ substrate protein remaining % ≤ 80%) | B (80%< substrate protein remaining %≤ 100%) | 
O=C1CCC(N2Cc3cc(CN4CCC(c5ccc(F)cc5)CC4)ccc3C2=S)C(=O)N1 (centres unmarked) [GT-08621, 3-(5-((4-(4-fluorophenyl)piperidin-1-yl)methyl)-1-thioxoisoindolin-2-yl)piperidine-2,6-dione] |  |  |  |  |  |  | 53 to 60% | 80 to 100% | B (80%< substrate protein remaining %≤ 100%) | B (80%< substrate protein remaining %≤ 100%) | A (0% ≤ substrate protein remaining % ≤ 80%) | B (80%< substrate protein remaining %≤ 100%) | B (80%< substrate protein remaining %≤ 100%) | A (0% ≤ substrate protein remaining % ≤ 80%) | 
O=C1CCC(N2Cc3c(CN4CCN(c5cccnc5)CC4)cccc3C2=S)C(=O)N1 (centres unmarked) [GT-08706, 3-(4-((4-(pyridin-3-yl)piperazin-1-yl)methyl)-1-thioxoisoindolin-2-yl)piperidine-2,6-dione] |  |  |  |  |  |  | 53 to 60% | 80 to 100% | B (80%< substrate protein remaining %≤ 100%) | B (80%< substrate protein remaining %≤ 100%) | A (0% ≤ substrate protein remaining % ≤ 80%) | A (0% ≤ substrate protein remaining % ≤ 80%) | A (0% ≤ substrate protein remaining % ≤ 80%) | A (0% ≤ substrate protein remaining % ≤ 80%) | 
O=C1CCC(N2Cc3cc(CN4CCN(C(c5ccccc5)c5ccncc5)CC4)ccc3C2=S)C(=O)N1 (centres unmarked) [GT-07733, 3-(5-((4-(phenyl(pyridin-4-yl)methyl)piperazin-1-yl)methyl)-1-thioxoisoindolin-2-yl)piperidine-2,6-dione] |  |  |  |  |  |  | 60 to 80% | 80 to 100% | B (80%< substrate protein remaining %≤ 100%) | B (80%< substrate protein remaining %≤ 100%) | B (80%< substrate protein remaining %≤ 100%) | A (0% ≤ substrate protein remaining % ≤ 80%) | A (0% ≤ substrate protein remaining % ≤ 80%) | A (0% ≤ substrate protein remaining % ≤ 80%) | 
O=C1CCC(N2Cc3c(CN4CC=C(c5c[nH]c6ncccc56)CC4)cccc3C2=S)C(=O)N1 (centres unmarked) [GT-08494, 3-(4-((4-(1H-pyrrolo[2,3-b]pyridin-3-yl)-3,6-dihydropyridin-1(2H)-yl)methyl)-1-thioxoisoindolin-2-yl)piperidine-2,6-dione] |  |  |  |  |  |  | 60 to 80% | 80 to 100% | B (80%< substrate protein remaining %≤ 100%) | A (0% ≤ substrate protein remaining % ≤ 80%) | A (0% ≤ substrate protein remaining % ≤ 80%) | B (80%< substrate protein remaining %≤ 100%) | A (0% ≤ substrate protein remaining % ≤ 80%) | B (80%< substrate protein remaining %≤ 100%) | 
O=C1CCC(N2Cc3c(CN4CCN(c5ncnc(Cl)c5Cl)CC4)cccc3C2=S)C(=O)N1 (centres unmarked) [GT-08814, 3-(4-((4-(5,6-dichloropyrimidin-4-yl)piperazin-1-yl)methyl)-1-thioxoisoindolin-2-yl)piperidine-2,6-dione] |  |  |  |  |  |  | 60 to 80% | 80 to 100% | B (80%< substrate protein remaining %≤ 100%) | B (80%< substrate protein remaining %≤ 100%) | A (0% ≤ substrate protein remaining % ≤ 80%) | B (80%< substrate protein remaining %≤ 100%) | B (80%< substrate protein remaining %≤ 100%) | B (80%< substrate protein remaining %≤ 100%) | 
O=C1CCC(N2Cc3cc(CN4CCN(c5nccc(Cl)c5F)CC4)ccc3C2=S)C(=O)N1 (centres unmarked) [GT-09244, 3-(5-((4-(4-chloro-3-fluoropyridin-2-yl)piperazin-1-yl)methyl)-1-thioxoisoindolin-2-yl)piperidine-2,6-dione] | B (80%< substrate protein remaining %≤ 100%) | B (80%< substrate protein remaining %≤ 100%) | B (80%< substrate protein remaining %≤ 100%) | B (80%< substrate protein remaining %≤ 100%) | B (80%< substrate protein remaining %≤ 100%) | A (0% ≤ substrate protein remaining % ≤ 80%) | 60 to 80% | 80 to 100% |  |  |  |  |  |  | 
